Some results are limits rather than exact numbers.

Data set [1] can be described thus: in vitro. The conditions noted are these: mouse, liver microsomes. (Microsomes from liver hold many membrane-bound enzymes, among them those of drug oxidation.)
Data set [2] in a line: physchem.
Data set [3] is described as follows: in vitro. The conditions noted are these: human, liver microsomes.
Data set [4] can be described thus: physchem. The conditions noted are these: octanol/water.
Data set [5] in a line: physchem. The conditions noted are these: octanol/water, pH 7.4.
Data set [6] relates to Human immunodeficiency virus 1. Nature of the data set: microbe, parasite or virus in culture.
The next data set in a line: cells. Particulars: Homo sapiens, Platelet, Plasma.
A short description of data set [7]: physchem. The source holds these as a separate data set.
In data set [8] the test system is Platelet. Nature of the data set: cells. Particulars: Homo sapiens, Plasma.
Data set [9] deals with Platelet. Nature of the data set: cells. Particulars: Homo sapiens, Plasma. This is another data set of the same source.
The species named for a further data set is Rattus norvegicus. The data set is described as follows: animal or person. Particulars: read-out: INH.
Data set [10] can be described thus: in vitro. The conditions noted are these: human, Caco-2.
The nature of data set [11]: in vivo. The conditions noted are these: rat, po.
Data set [12] in a line: in vitro. The conditions noted are these: rat, liver microsomes.
Data set [13] in a line: in vitro. The conditions noted are these: human, liver microsomes. The source holds these as a separate data set.
Data set [14] can be described thus: physchem. The conditions noted are these: octanol/water, pH 7.4. The source holds these as a separate data set.
A short description of data set [15]: in vitro. Particulars: human, Caco-2. The source holds these as a separate data set.
For data set [16], the system named is Respiratory syncytial virus. The data set is described as follows: microbe, parasite or virus in culture. The conditions noted are these: human respiratory syncytial virus.
The next data set has as its system Syrian golden hamster. The data set is described as follows: animal or person. Particulars: Mesocricetus auratus.
A short description of data set [17]: in vivo. The conditions noted are these: rat.
Another data set in a line: clinical. The conditions noted are these: human, in vivo.

Consider `CN(C)CCCCc1ccc(C2COC2)cc1`, for which the microsomal CLint (in general, the capacity of the preparation to metabolise the compound, expressed as a volume cleared per time) worked out at 27 µL/min/mg in “in vitro [1]” and 2 µL/min/mg in “in vitro [3]”. The concentration in solution in the data set “physchem [2]” (solubility) was 4000 µg/mL.

With `CN(C)CCCCc1ccc(C(C)(C)C)cc1`, the microsomal CLint was found to be 417 µL/min/mg in “in vitro [1]” and 16 µL/min/mg in “in vitro [3]”. Besides, the lipophilicity (logP) (as a rule, a log measure of how a compound divides between an organic and an aqueous phase) in the data set “physchem [4]” was found to be 4.3. Moreover, the log distribution coefficient (logD) (usually the decadic logarithm of the distribution of all forms, ionised or not, between an organic phase and buffer at a given pH) in “physchem [5]” was determined as 1.8. Besides, the solubility – broadly, the concentration that dissolves in the medium under given conditions – in the data set “physchem [2]” was less than 1 µg/mL.

Molecule `CN(C)CCCCc1ccc(C2(C)COC2)cc1` gave a microsomal CLint in “in vitro [1]” of 43 µL/min/mg. In the data set “physchem [2]”, this molecule showed a solubility of 4400 µg/mL.

With `CN(C)CCC1(Cc2ccc(C(C)(C)C)cc2)COC1`, the results for the intrinsic clearance (microsomal CLint) in the data set “in vitro [1]” and in “in vitro [3]” were 13 µL/min/mg and 6 µL/min/mg, respectively. The same molecule displayed a solubility in the data set “physchem [2]” of 4100 µg/mL.

Take `CN(C)C1(CCCc2ccc(C(C)(C)C)cc2)COC1`: the values for the intrinsic metabolic clearance (microsomal CLint) in the data set “in vitro [1]” and in the data set “in vitro [3]” were 580 µL/min/mg and 13 µL/min/mg, respectively. In the data set “physchem [2]”, this molecule displayed a solubility of 57 µg/mL.

`CN(C)CCCC1(c2ccc(C(C)(C)C)cc2)COC1` returned an intrinsic clearance (microsomal CLint) in the data set “in vitro [1]” of 147 µL/min/mg. Besides, in “physchem [2]”, the solubility is 270 µg/mL.

For the molecule `O=C(N[C@H]1c2ccccc2C[C@H]1O)[C@H](Cc1ccccc1)CC(O)C[C@@H](Cc1ccccc1)C(=O)N[C@H]1c2ccccc2C[C@H]1O`, it took 23 nM to reach the 90% level in data set [6] (EC90).

In “physchem [4]”, `NCc1cc(F)c(O)c(F)c1` yielded a log partition coefficient (logP) of 1.01.

In the case of `O=C(O)/C=C/c1cccc(CCc2nc(-c3ccccc3)c(-c3ccccc3)o2)c1`, the EC50 – broadly, the midpoint of the concentration-response curve – in “cells” turned out to be 660 nM.

In turn, `O=C(O)CCc1cccc(CCc2nc(-c3ccccc3)c(-c3ccccc3)o2)c1` came in with an EC50 in “cells” of 16000 nM.

For `O=C(O)/C=C/c1cccc(OCc2nc(-c3ccccc3)c(-c3ccccc3)o2)c1`, in “cells”, the EC50 was found to be 14000 nM.

`Oc1c(F)cccc1F`: the pKa (usually the pH at which an ionisable group is half protonated) in “physchem [7]” turned out to be 7.12.

Take `O=C(O)COc1cccc(-c2ocnc2-c2nc(-c3ccccc3)c(-c3ccccc3)o2)c1`: the EC50 with Platelet [8] and in the data set on Platelet [9] was 27 nM each time.

Turning to `O=c1c(O)c(-c2ccccc2)c1=O`, the pKa in the data set “physchem [7]” was 0.37.

For `O=S(=O)(Nc1ccncc1Oc1ccccc1)C(F)(F)F`, the inhibition in vivo at 30 mg/kg in the data set listed under Rattus norvegicus is 54.1%.

`O=C(c1ccccc1)c1ccn(-c2cc(F)c(O)c(F)c2)c1` came in with a log partition coefficient (logP) in “physchem [4]” of 3.56.

For `Cc1nccn1-c1ccc(NC(=O)c2cc(C(F)(F)F)nn2-c2ccc3onc(N)c3c2)c(F)c1`, in “in vitro [10]”, the apparent permeability (Papp) – broadly, a coefficient for how fast a substance crosses the barrier – worked out at 7.41 ×10⁻⁶ cm/s.

For the molecule `Cc1nccn1-c1ccc(NC(=O)c2cc(C(F)(F)F)nn2-c2ccc3onc(N)c3c2)c(C#N)c1`, the Papp in “in vitro [10]” is less than 0.1 ×10⁻⁶ cm/s.

For `CCc1cc(C#N)ccc1Nc1c(N[C@H](C)C(C)(C)C)c(=O)c1=O`, the bioavailability – broadly, dose-corrected exposure relative to a reference, in per cent – in “in vivo [11]” amounted to 70%.

As to `O=C(N[C@H]1c2ccccc2C[C@H]1O)[C@H](Cc1ccccc1)C[Si](O)(O)C[C@@H](Cc1ccccc1)C(=O)N[C@H]1c2ccccc2C[C@H]1O`, the 90% effect level in data set [6] (EC90) was put at 170 nM.

In “physchem [7]”, `O=C(CCCN1CC[Si](O)(c2ccc(Cl)cc2)CC1)c1ccc(F)cc1` displayed a pKa of 9.27. Also, the half-life (as a rule, how long it takes for the measured level to halve) is 18 min in “in vitro [12]” and 65 min in “in vitro [13]”. The molecule also displayed a logD in “physchem [14]” of 2.77. Also, in the data set “in vitro [15]”, the apparent permeability coefficient (Papp) is 19.8 ×10⁻⁶ cm/s. In “physchem [2]”, this molecule had a solubility of 78 µM.

`COC(=O)N[C@@H](C(=O)NCCCC[C@H](CO)N(CC(C)C)S(=O)(=O)c1ccc(CN)cc1)C(c1ccccc1)c1ccccc1` came in with a concentration for a half-maximal effect (EC50) in data set [6] of 30 nM.

`C=C(C)n1c(=O)n(Cc2nc3ccccc3n2CCCC#N)c2cnccc21` gave a half-life in “in vitro [13]” of 11 min. In data set [16], this molecule had an EC50 of 3 nM.

As for `COc1ccc(C2[C@@H](CCCc3ccccc3)C(=O)N2c2ccc(OC)cc2)cc1` (stereo not given in full), the ED50 (in general, the dose that gives a 50% effect, or the effect in half of the subjects) in the data set on Syrian golden hamster worked out at 2.2 mg/kg.

Turning to `NCc1ccc(F)c(O)c1F`, the lipophilicity (logP) in the data set “physchem [4]” amounted to 1.01.

With `O=C(O)CCc1cccc(OCc2nc(-c3ccccc3)c(-c3ccccc3)o2)c1`, the EC50 in the data set “cells” is more than 80000 nM.

Turning to `O=C(O)COc1cccc(/C=C\c2nc(-c3ccccc3)c(-c3ccccc3)o2)c1`, the EC50 in the data set with Platelet [8] and in the data set on Platelet [9] was 180 nM each time.

In “cells”, `O=C(O)COc1cccc(OCc2nc(-c3ccccc3)c(-c3ccccc3)o2)c1` registered an EC50 of 1200 nM.

On to `O=C(O)COc1cccc(-c2ncoc2-c2nc(-c3ccccc3)c(-c3ccccc3)o2)c1`, for which the EC50 in the data set on Platelet [8] and in the data set with Platelet [9] was 160 nM each time.

Consider `Cc1nccn1-c1ccc(NC(=O)c2cc(C(F)(F)F)nn2-c2ccc3onc(N)c3c2)cc1`, for which the Papp in the data set “in vitro [10]” came to 0.82 ×10⁻⁶ cm/s.

In the data set “physchem [4]”, `O=C(O)Cn1ccc(C(=O)c2ccccc2)c1` showed a logP of 1.23.

With `COc1ccc(C(CN(C)C)[Si]2(O)CCCCC2)cc1` (racemic), in the data set “physchem [7]”, the pKa stood at 9.7. The log distribution coefficient (logD) in “physchem [14]” was 0.92. This molecule also registered a logP in “physchem [4]” of 3.21.

Molecule `COc1ccc(C(CN(C)C)C2(O)CCCCC2)cc1` (racemic) [VENLAFAXINE] had a log distribution coefficient (logD) in “physchem [14]” of 0.88. The same molecule returned a logP in “physchem [4]” of 3.13.

Take `Cc1ccc(-c2cc(C(F)(F)F)nn2-c2ccc(S(N)(=O)=O)cc2)cc1` [CELECOXIB]: the half-life in the data set “in vivo [17]” is 3.5 h.

Regarding `O=C1N(Cc2ccc(CO)cc2)[C@H](Cc2ccccc2)[C@H](O)[C@@H](O)[C@@H](Cc2ccccc2)N1Cc1ccc(CO)cc1` [DMP-323], in data set [6], it took 57 nM to reach the 90% level (EC90).

`O=C1[C@H](CC[C@H](O)c2ccc(F)cc2)[C@@H](c2ccc(O)cc2)N1c1ccc(F)cc1` [EZETIMIBE] returned an ED50 with Syrian golden hamster of 0.04 mg/kg.

The molecule `O=C(CCCN1CCC(O)(c2ccc(Cl)cc2)CC1)c1ccc(F)cc1` [HALOPERIDOL] displayed a logD in “physchem [14]” of 2.42. The molecule also displayed a Papp in “in vitro [15]” of 18.9 ×10⁻⁶ cm/s. The molecule also returned a solubility in “physchem [2]” of 90 µM.

On to `CC#CCC(C)[C@H](O)/C=C/[C@@H]1[C@H]2C/C(=C/CCCC(=O)O)C[C@H]2C[C@H]1O` (stereo not given in full) [ILOPROST], for which the half-life in the data set “clinical” came to 20 min.

Regarding `CS(=O)(=O)c1ccc(-n2nc(C(F)(F)F)cc2-c2ccc(F)cc2)cc1` [SC-58125], the half-life in the data set “in vivo [17]” is 221 h.

The values are drawn from ChEMBL document CHEMBL2203023, “Synopsis of some recent tactical application of bioisosteres in drug design” (J Med Chem, 2011).
